Data as given in DBAASP.
≈ marks a conversion by molar mass, not a printed value. Where “and” joins values, the source holds several entries; their conditions need not be identical. Equal entries are not always repeated. Values belong to the molecule of their own block, whether it stands above or below them.

What was measured:
Assay in all cases: ≥ marks a high value that may be exact or a test limit, other limits are often not marked, values filed in µg/mL are converted to µM
[1] = system: Acinetobacter baumannii ATCC 19606
[2] = system: Acinetobacter baumannii
[3] = system: Burkholderia cepacia ATCC 25416
[4] = system: Enterococcus faecium
[5] = system: Escherichia coli ATCC 25922
[6] = system: Escherichia coli O18:K1:H7
[7] = system: Klebsiella pneumoniae ATCC 27736
[8] = system: Klebsiella pneumoniae
[9] = system: Listeria monocytogenes 10403s
[10] = system: Pseudomonas aeruginosa 547
[11] = system: Pseudomonas aeruginosa ATCC 27853
[12] = system: Pseudomonas aeruginosa PA14
[13] = system: Pseudomonas aeruginosa
[14] = system: Salmonella typhimurium
[15] = system: Serratia marcescens ATCC 8100
[16] = system: Staphylococcus aureus ATCC 29213
[17] = system: Staphylococcus aureus
[18] = system: Stenotrophomonas maltophilia
[19] = system: Streptococcus pneumoniae ATCC 49619
[20] = system: Streptococcus pyogenes
[21] = system: Aeromonas hydrophila CGMCC 1.0927
[22] = system: Aeromonas sobria
[23] = system: Bacillus subtilis CGMCC 1.108
[24] = system: Candida albicans CGMCC 2.2411
[25] = system: Corynebacterium glutamicum CGMCC 1.1886
[26] = system: Edwardsiella tarda
[27] = system: Escherichia coli MC1061
[28] = system: Micrococcus luteus CGMCC 1.0634
[29] = system: Micrococcus luteus CGMCC 1.634
[30] = system: Pseudomonas fluorescens CGMCC 1.0032
[31] = system: Shigella flexneri CGMCC 1.1868
[32] = system: Staphylococcus aureus CGMCC 1.363
[33] = system: Staphylococcus epidermidis CGMCC 1.2429
[34] = system: Vibrio alginolyticus CGMCC 1.1833
[35] = system: Vibrio fluvialis CGMCC 1.1609
[36] = system: Vibrio harveyi CGMCC 1.1593
[37] = system: Vibrio parahaemolyticus CGMCC 1.1615
[38] = system: Bacillus cereus ATCC 10876
[39] = system: Candida albicans
[40] = system: Candida glabrata 090902
[41] = system: Candida tropicalis
[42] = system: Cutibacterium acnes ATCC 11827
[43] = system: Enterococcus faecalis ATCC 29212
[44] = system: Enterococcus faecium 091299
[45] = system: Escherichia coli 091335
[46] = system: Klebsiella oxytoca
[47] = system: Nocardia asteroides
[48] = system: Proteus mirabilis
[49] = system: Proteus vulgaris
[50] = system: Pseudomonas aeruginosa 091411
[51] = system: Pseudomonas aeruginosa 091412
[52] = system: Staphylococcus aureus ATCC 2592
[53] = system: Staphylococcus aureus ATCC 6538
[54] = system: Staphylococcus haemolyticus
[55] = system: Streptococcus agalactiae ATCC 27956
[56] = system: Streptococcus dysgalactiae subsp. dysgalactiae ATCC 27957
[57] = system: Streptococcus equi subsp. zooepidemicus ATCC 43079

Compound: CSCC[C@@H](NC(=O)[C@@H](Cc1c[nH]c2ccccc12)NC(=O)CNC(=O)CNC(=O)[C@@H](CCCN=C(N)N)NC(=O)[C@@H](CCCN=C(N)N)NC(=O)[C@@H](CCCN=C(N)N)NC(=O)[C@@H](CCC(N)=O)NC(=O)[C@@H](CCCN=C(N)N)NC(=O)[C@@H](CCCN=C(N)N)NC(=O)[C@@H](CCCCN)NC(=O)[C@@H](CCCCN)NC(=O)[C@@H](CCCN=C(N)N)NC(=O)CN)C(=O)N[C@H](Cc1c[nH]c2ccccc12)C(=O)N[C@@H](C(=O)N[C@@H](C(=O)N[C@H](CC(N)=O)C(=O)N[C@H](CC(C)C)C(=O)N[C@H](CCCN=C(N)N)C(=O)N[C@@H](C(=O)N[C@H](CC(=O)O)C(=O)O)[C@H](C)O)[C@H](C)O)C(C)C [GRKKRRQRRRGGWMWVTNLRTD]
- MIC [1]: 2.84 µM (≈ 8 µg/mL)
- MIC [2]: 5.69 µM (≈ 16 µg/mL)
- MIC [3]: ≥ 91 µM
- MIC [4]: 22.7 µM (≈ 64 µg/mL)
- MIC [5]: 11.4 µM (≈ 32 µg/mL)
- MIC [6]: 22.7 µM (≈ 64 µg/mL)
- MIC [7]: ≥ 91 µM
- MIC [8]: > 91 µM
- MIC [9]: ≥ 45.5 µM
- MIC [10]: ≥ 45.5 µM
- MIC [11]: 22.7 µM (≈ 64 µg/mL)
- MIC [12]: 11.4 µM (≈ 32 µg/mL)
- MIC [13]: > 45.5 µM
- MIC [14]: 22.7 µM (≈ 64 µg/mL)
- MIC [15]: ≥ 91 µM
- MIC [16]: 45.5 µM (≈ 128 µg/mL)
- MIC [17]: 45.5 µM (≈ 128 µg/mL)
- MIC [18]: 5.69 µM (≈ 16 µg/mL)
- MIC [19]: 22.7 µM (≈ 64 µg/mL)
- MIC [20]: 2.84 µM (≈ 8 µg/mL)

- MIC [21]: 1.06 µM (≈ 3.16 µg/mL)
- MIC [22]: 4.24 µM (≈ 12.7 µg/mL)
- MIC [23]: 2.12 µM (≈ 6.33 µg/mL)
- MIC [24]: ≥ 33.9 µM
- MIC [25]: 1.06 µM (≈ 3.16 µg/mL)
- MIC [26]: ≥ 48 µM
- MIC [27]: 2.12 µM (≈ 6.33 µg/mL)
- MIC [28]: 1.06 µM (≈ 3.16 µg/mL)
- MIC [29]: 1.06 µM (≈ 3.16 µg/mL)
- MIC [30]: 1.06 µM (≈ 3.16 µg/mL)
- MIC [31]: 1.06 µM (≈ 3.16 µg/mL)
- MIC [32]: 2.12 µM (≈ 6.33 µg/mL)
- MIC [33]: 2.12 µM (≈ 6.33 µg/mL)
- MIC [34]: ≥ 48 µM
- MIC [35]: ≥ 48 µM
- MIC [36]: ≥ 48 µM
Compound: CC[C@H](C)[C@H](NC(=O)[C@H](CCCN=C(N)N)NC(=O)CNC(=O)[C@@H](NC(=O)[C@@H]1CCCN1C(=O)[C@H](Cc1ccccc1)NC(=O)[C@H](CCC(N)=O)NC(=O)[C@H](CC(C)C)NC(=O)CNC(=O)[C@H](C)NC(=O)[C@H](CCCN=C(N)N)NC(=O)[C@H](C)NC(=O)[C@H](CO)NC(=O)[C@H](CCCN=C(N)N)NC(=O)[C@H](CO)NC(=O)[C@@H](NC(=O)[C@H](C)NC(=O)[C@H](CCCCN)NC(=O)[C@H](C)NC(=O)[C@H](CCCCN)NC(=O)[C@H](C)NC(=O)[C@@H](N)CCCCN)C(C)C)C(C)C)C(=O)N[C@@H](Cc1cnc[nH]1)C(=O)N[C@@H](CCCN=C(N)N)C(=O)N[C@@H](Cc1cnc[nH]1)C(=O)N[C@@H](CC(C)C)C(=O)N[C@@H](CCCCN)C(=O)O [KAKAKAVSRSARAGLQFPVGRIHRHLK]
- MIC [37]: ≥ 48 µM

- MIC [22]: 3.07 µM (≈ 9.4 µg/mL)
- MIC [38]: 13.1 µM (≈ 40.1 µg/mL)
- MIC [39]: 3.07 µM (≈ 9.4 µg/mL)
- MIC [40]: ≥ 32.7 µM
- MIC [41]: ≥ 32.7 µM
- MIC [42]: 1.54 µM (≈ 4.7 µg/mL)
- MIC [43]: 9.8 µM (≈ 30 µg/mL)
- MIC [44]: 3.07 µM (≈ 9.4 µg/mL)
- MIC [45]: 24.5 µM (≈ 75 µg/mL)
- MIC [5]: 2.9 µM (≈ 8.88 µg/mL)
- MIC [46]: ≥ 32.7 µM
- MIC [8]: > 32.7 µM
- MIC [47]: 0.392 µM (≈ 1.2 µg/mL)
- MIC [48]: ≥ 32.7 µM
- MIC [49]: ≥ 32.7 µM
- MIC [50]: 6.14 µM (≈ 18.8 µg/mL)
- MIC [51]: ≥ 32.7 µM
- MIC [52]: 0.196 µM (≈ 0.6 µg/mL)
- MIC [53]: 13.4 µM (≈ 41 µg/mL)
- MIC [17]: 0.392 µM and > 0.196 µM
- MIC [18]: 3.07 µM (≈ 9.4 µg/mL)
- MIC [55]: 13.1 µM (≈ 40.1 µg/mL)
- MIC [56]: 13.1 µM (≈ 40.1 µg/mL)
- MIC [57]: 13.1 µM (≈ 40.1 µg/mL)
Compound: CC[C@H](C)[C@H](NC(=O)[C@H](CCSC)NC(=O)[C@H](CC(C)C)NC(=O)[C@H](Cc1ccccc1)NC(=O)[C@H](CCC(N)=O)NC(=O)[C@H](Cc1ccc(O)cc1)NC(=O)[C@H](CCCN=C(N)N)NC(=O)[C@@H](NC(=O)[C@@H](NC(=O)[C@@H](NC(=O)[C@H](CO)NC(=O)CNC(=O)[C@H](CCCN=C(N)N)NC(=O)[C@H](CCCN=C(N)N)NC(=O)[C@@H](N)CCCCN)C(C)C)[C@@H](C)O)[C@@H](C)O)C(=O)N[C@@H](Cc1cnc[nH]1)C(=O)N[C@@H](CC(C)C)C(=O)N[C@@H](CC(C)C)C(=O)N[C@@H](CCCN=C(N)N)C(=O)N1CCC[C@H]1C(=O)N[C@@H](CCCCN)C(=O)N[C@@H](CCCCN)C(=O)N[C@@H](CC(C)C)C(=O)N[C@@H](Cc1ccccc1)C(=O)N[C@@H](C)C(=O)O [KRRGSVTTRYQFLMIHLLRPKKLFA]
- MIC [54]: 0.196 µM (≈ 0.6 µg/mL)
